Laboratory results published in patent US10072029B2, “Crystalline form of a proteasome inhibitor” (Millennium Pharmaceuticals, Inc., priority 2015, dated 2018).

Tests used:
[1] = Chemical stability assessment, 60/75 stress test, HPLC; format: physicochemical
Method: The chemical stability assessment was performed on crystalline Pattern B using a 60/75 stress test (The International Conference on Harmonisation of Technical Requirements for Registration of Pharmaceuticals for Human Use, Stability Testing of New Drug Substances and Products, Q1A(R2), 2003). Samples were exposed to 60° C./75% relative humidity condition for 2 weeks and post-stress materials were analyzed by HPLC. Data at time-zero was also collected for all samples and served as references. The following table summarizes stability data obtained (peak area % measured by HPLC) for crystalline Pattern B.

[2] = target: β1 site of the 20S proteasome (Homo sapiens, UniProt P28072); conditions: at higher concentrations; cited from earlier work
[3] = target: β2 site of the 20S proteasome (Homo sapiens, UniProt Q99436); conditions: at higher concentrations; cited from earlier work
[4] = system: kinases; conditions: panel of kinases; cited from earlier work
[5] = target: receptors; conditions: panel of receptors; cited from earlier work

| Compound | % at 1 wk (peak area % measured by HPLC) ([1]; 60° C./75% relative humidity, 1 wk) [%] | % at 2 wk (peak area % measured by HPLC) ([1]; 60° C./75% relative humidity, 2 wk) [%] | % at t0 (peak area % measured by HPLC) ([1]; time-zero reference) [%] | inhibition of the activity of the β1 site [2] | inhibition of the activity of the β2 site [3] | IC50 [4] [µM] | IC50 [5] [µM] |
| --- | --- | --- | --- | --- | --- | --- | --- |
| CC(C)C[C@H](NC(=O)CNC(=O)c1cc(Cl)ccc1Cl)B1OB([C@H](CC(C)C)NC(=O)CNC(=O)c2cc(Cl)ccc2Cl)OB([C@H](CC(C)C)NC(=O)CNC(=O)c2cc(Cl)ccc2Cl)O1 [Crystalline Pattern B, N,N′,N″-[2,4,6-boroxintriyltris[[(1R)-3-methylbutylidene]imino(2-oxo-2,1-ethanediyl)]]tris(2,5-dichlorobenzamide)] | 94.2 | 79.5 | 99.3 | – | – | – | – |
| CC(C)C[C@H](NC(=O)CNC(=O)c1cc(Cl)ccc1Cl)B(O)O [Ixazomib, [(1R)-1-({[(2,5-dichlorobenzoyl)amino]acetyl}amino)-3-methylbutyl]boronic acid] | – | – | – | inhibits the activity | inhibits the activity | > 10 | > 10 |
